Test results from ChEMBL document CHEMBL1133460, “Synthesis and biological evaluation of certain alpha,beta-unsaturated ketones and their corresponding fused pyridines as antiviral and cytotoxic agents” (J Med Chem, 2000).
≈ marks a conversion by molar mass, not a printed value. Where “and” joins values, the source holds several entries; their conditions need not be identical. Equal entries are not always repeated.

Key:
Ovarian cancer cell line [1] = assay: In vitro median growth inhibitory concentration against ovarian cancer cell lines; type: functional; conditions: Homo sapiens
[2] = In vitro median growth inhibitory concentration against colon cancer cell lines; type: functional; conditions: Homo sapiens
Breast cancer cell line [3] = assay: In vitro median growth inhibitory concentration against breast cancer cell lines; type: functional; conditions: Homo sapiens
[4] = system: Panel prostate (Carcinoma cell lines); assay: In vitro median growth inhibitory concentration against prostate cancer cell lines; type: functional; conditions: Homo sapiens
NSCLC [5] = assay: In vitro growth inhibitory concentration against non-small-cell lung cancer; type: functional; conditions: Homo sapiens
[6] = system: Human immunodeficiency virus 1; assay: In vitro effective concentration against HIV-1 cytopathic effect in T4 cells; Inactive; type: functional, organism-based
[7] = system: Panel prostate (Carcinoma cell lines); assay: In vitro growth inhibitory concentration against prostate cancer cell lines; type: functional; conditions: Homo sapiens
Ovarian cancer cell line [8] = assay: In vitro growth inhibitory concentration against ovarian cancer cell lines; type: functional; conditions: Homo sapiens
[9] = Full panel mean-graph midpoint (MG-MID)
[10] = system: Panel leukemia (Carcinoma cell lines); assay: In vitro growth inhibitory concentration against leukemia tumor cell lines; type: functional; conditions: Homo sapiens
[11] = system: Panel leukemia (Carcinoma cell lines); assay: In vitro median growth inhibitory conc. against leukemia was estimated.; type: functional; conditions: Homo sapiens
[12] = system: Panel CNS (Carcinoma cell lines); assay: In vitro growth inhibitory concentration against CNS cancer cell lines; type: functional; conditions: Homo sapiens
MT4 = assay: In vitro inhibitory activity against uninfected T4 cells; type: functional, cell-based; conditions: Homo sapiens
Breast cancer cell line [13] = assay: In vitro growth inhibitory concentration against breast cancer cell lines; type: functional; conditions: Homo sapiens
[14] = system: Panel renal (Carcinoma cell lines); assay: In vitro growth inhibitory concentration against renal cancer cell lines; type: functional; conditions: Homo sapiens
[15] = system: Panel melanoma (Carcinoma cell lines); assay: In vitro median growth inhibitory concentration against melanoma cell lines; type: functional; conditions: Homo sapiens
[16] = system: Panel melanoma (Carcinoma cell lines); assay: In vitro growth inhibitory concentration against melanoma cancer cell lines; type: functional; conditions: Homo sapiens
[17] = In vitro growth inhibitory concentration against colon cancer tumor cell lines; type: functional; conditions: Homo sapiens
NSCLC [18] = assay: In vitro median growth inhibitory concentration against non-small-cell lung cancer; type: functional; conditions: Homo sapiens
[19] = system: Panel renal (Carcinoma cell lines); assay: In vitro median growth inhibitory concentration against renal cancer cell lines; type: functional; conditions: Homo sapiens
[20] = system: Panel CNS (Carcinoma cell lines); assay: In vitro median growth inhibitory concentration against CNS cancer cell lines; type: functional; conditions: Homo sapiens
Homo sapiens = species: Homo sapiens; assay: Selectivity ratio between the full panel MG-MID and leukemia subpanel MG-MID was determined.; type: functional
Human alphaherpesvirus 1 [21] = assay: Concentration which caused 50% loss of the monolayer present around the viral plaques in uM; type: functional, organism-based
Human alphaherpesvirus 1 [22] = assay: Concentration which caused 50% loss of the monolayer present around the viral plaques in ug/mL.; type: functional, organism-based
Human alphaherpesvirus 1 [23] = assay: Minimum antiviral concentration proved to be lethal to viral population in ug/mL.; type: functional
Human alphaherpesvirus 1 [24] = assay: In vitro antiviral activity against Herpes Simplex-1 virus (HSV-1) expressed as percent reduction in the number of viral plaques; type: functional; set-up: concentration or dose not given beside the values
Human alphaherpesvirus 1 [25] = assay: Minimum antiviral concentration proved to be lethal to viral population in uM; type: functional
Human alphaherpesvirus 1 [26] = assay: 50% loss of the monolayer present around the viral plaques in uM; type: functional, organism-based
Human alphaherpesvirus 1 [27] = assay: concentration caused 50% loss of the monolayer present around the viral plaques in ug/mL.; type: functional, organism-based
[28] = In vitro effective concentration against HIV-1 cytopathic effect in T4 cells; type: functional, cell-based; conditions: Homo sapiens

| SMILES | GI50 (Ovarian cancer cell line [1]) [µM] | GI50 [2] [µM] | GI50 (Breast cancer cell line [3]) [µM] | GI50 [4] [µM] | TGI (NSCLC [5]) [µM] | EC50 [6] | TGI [7] [µM] | TGI (Ovarian cancer cell line [8]) [µM] | MG-MID [9] | TGI [10] [µM] | GI50 [11] [µM] | TGI [12] [µM] | IC50 (MT4) [µM] | TGI (Breast cancer cell line [13]) [µM] | TGI [14] [µM] | GI50 [15] [µM] | TGI [16] [µM] | TGI [17] [µM] | GI50 (NSCLC [18]) [µM] | GI50 [19] [µM] | also measured |
| --- | --- | --- | --- | --- | --- | --- | --- | --- | --- | --- | --- | --- | --- | --- | --- | --- | --- | --- | --- | --- | --- |
| COc1ccc(/C=C2\CN(C)Cc3c2nc(O)c(C#N)c3-c2ccc(OC)cc2)cc1 | 51.8 | 60.5 | 66.9 | 70.9 | > 100 | Not Active | > 100 | > 100 | 52.5 µM and 95.8 µM | 80.7 | 35 | > 100 | 104 | > 100 | 87.8 | 79.9 | > 100 | > 100 | 66.6 | 61.2 | GI50 [20]: 44.9 µM; Ratio (Homo sapiens): 1.5 |
| CN1C/C(=C\c2cccs2)C2=NN(C)C(c3cccs3)C2C1 (stereo not drawn) | 74.4 | 79.2 | 86 | 59.5 | > 100 | Not Active | > 100 | > 100 | 68 µM and 97.7 µM | 87.8 | 31.8 | > 100 | > 200 | > 100 | > 100 | 85 | 97.7 | > 100 | 86.4 | 89.7 | GI50 [20]: 80.7 µM; Ratio (Homo sapiens): 2.1 |
| COc1ccc(/C=C2\CN(C)C/C(=C\c3ccc(OC)cc3)C2O)cc1 |  |  |  |  |  |  |  |  |  |  |  |  |  |  |  |  |  |  |  |  | IC50 (Human alphaherpesvirus 1 [21]): 0.12 µM; IC50 (Human alphaherpesvirus 1 [22]): 0.04 µg/mL (≈ 0.114 µM); MAC (Human alphaherpesvirus 1 [23]): 0.02 µg/mL; Reduction (Human alphaherpesvirus 1 [24]): 58%; MAC (Human alphaherpesvirus 1 [25]): 0.06 µM |
| CN1CC2=C(N=C(S)NC2c2cccs2)/C(=C/c2cccs2)C1 (stereo not drawn) | 65.5 | 70.5 | 45.1 | > 100 | > 100 | Not Active | > 100 | > 100 | 53.5 µM and 95.8 µM | 69.8 | 22.4 | > 100 | 34 | 98.1 | > 100 | 60.5 | > 100 | > 100 | 67.2 | 75 | IC50 (Human alphaherpesvirus 1 [26]): 0.58 µM; MAC (Human alphaherpesvirus 1 [23]): 0.1 µg/mL; Reduction (Human alphaherpesvirus 1 [24]): 27%; IC50 (Human alphaherpesvirus 1 [27]): 0.15 µg/mL (≈ 0.417 µM); MAC (Human alphaherpesvirus 1 [25]): 0.29 µM; GI50 [20]: 76.1 µM; Ratio (Homo sapiens): 2.4 |
| Cc1cn([C@H]2C[C@H](N=[N+]=[N-])[C@@H](CO)O2)c(=O)[nH]c1=O [ZIDOVUDINE] |  |  |  |  |  |  |  |  |  |  |  |  | 35.6 |  |  |  |  |  |  |  | EC50 [28]: 0.0007 µM |
